Source: patent publication US10494404B2, “Quinolinium conjugates of cyclosporin” (priority 2014, dated 2019)
“Also recorded” adds a separate entry of the source.

How the values were obtained:
[1] = system: DIV 8-9 rat cortical neurons; assay: Mitochondrial functional parameters in DIV 8-9 rat cultured cortical neurons; format: cell-based; settings: Compound 1 up to 200 nM, CsA up to 1 μM
Protocol: The minimum value after the addition of compound (prior to the addition of FCCP) was taken, and this was expressed as a % (using baseline as 100% and FCCP as 0%), and then normalized to DMSO (100%). Significance was assessed by one-way ANOVA, in comparison to DMSO control.
Freshly isolated mitochondria were resuspended in MSK buffer (containing 10 mM glutamate and 2 mM malate) at 1 mg/ml and plated in opaque white 96 well plates, or for neuronal assays, neurons were used 9 days after plating at 15000 cells/well. Drugs were added at the concentrations specified, and for mitochondrial assays were incubated for ten minutes before addition of ADP (5 mM), followed by another 45 minutes. For neuronal assays, drugs were added in neurobasal medium and incubated for 60 minutes. Cell Titer Glo reagent was then added, and the plate shaken for 2 minutes in the dark to lyse cells/mitochondria and release ATP. The plates were incubated a further ten minutes and then luminescence values read using an Optima FluoStar.

[2] = system: experimental autoimmune encephalomyelitis (EAE); assay: Relapsing-progressive experimental autoimmune encephalomyelitis (EAE) in ABH mice; format: in vivo, mouse
Protocol: ABH mice were injected with 1 mg mouse spinal cord homogenate in Freund's adjuvant on days 0 and 7 post-induction to induce EAE and this was repeated on day 28 post-induction to induce a relapse.
Animals were monitored for the development of clinical disease and the results in FIG. 1 represent the mean daily clinical score after induction of relapse.
Mice were injected subcutaneously (s.c.) with 1 mg freeze-dried mouse spinal cord homogenate (SCH) in Freunds adjuvant on day zero and seven as described previously (Al-Izki et al, 2012a). After the initial paralytic disease and subsequent remission, a relapse was induced by a further injection of SCH in Freunds incomplete adjuvant on day 28 to induce a relapse 7 days later (Al-Izki et al, 2012a). Studies were randomised, blinded and powered as described previously (Al-Izki et al, 2012a). Neurological scores were graded as 0=normal; 1=limp tail, 2=impaired righting reflex, 3=hindlimb paresis, 4=complete hindlimb paralysis, and 5=moribund/death (Al-Izki et al, 2012a). Results are expressed as mean±SEM maximum or minimum neurological score and mean day of onset±SD. Differences between groups were assessed using Mann Whitney U statistics (Al-Izki et al, 2012a). Motor control and co-ordination was assessed on an accelerating (4-40 rpm, accelerating at 6 rpm/25 s) RotaRod (ENV-575M, Med Associates Inc, St. Albans, Vt., USA) as described previously (Al-Izki et al, 2012a). This was performed one day before induction of relapse and at the termination of the experiment on day 45. RotaRod assessment was performed blinded to treatment. Animals were randomised to vehicle or treatment based on their RotaRod scores. Results are expressed as mean±SEM time that animals maintained rotarod activity. Differences between groups were assessed using Students t test, incorporating a test for equality of variance and normality (Al-Izki et al, 2012a). At the end of the experiment the spinal cord was removed and an enzyme linked immunosorbent assay (ELISA) for heavy chain neurofilament on spinal cord was performed and total nerve content of each spinal cord was estimated following calibration against neurofilament protein standards as described previously (Jackson et al, 2005); (Al-Izki et al, 2012a).
Neurofilament level as a correlate of spinal cord axonal content was determined as followed. Spinal cords were collected from the spinal columns of untreated (n=11) and Compound 11 mg/kg treated (n=13) animals at the second remission phase of disease post relapse at day 45 post disease induction. Tissues snap frozen and stored at −80° C. prior to homogenisation. Tissues were homogenised in a glass homogeniser in 1 ml/100 mg of spinal cord tissue wet weight homogenisation buffer (0.2 mM PMSF, 1 mM EDTA, 1 mM EGTA, 4M Urea, 10 mM Tris-HCl Sigma UK, pH 7.2,) plus 1:100 HALT protease inhibitor cocktail (Thermo Fisher, UK) and further homogenised by sonication twice for 10 seconds (Cole-Parmer Instruments, USA). Samples were spun down at 13,000 rpm in a bench top centrifuge (Eppendorf, UK) and the supernatant was collected and stored at −80° C. prior to neurofilament determination. Samples were thawed on ice and an enzyme linked immunosorbent assay for heavy chain neurofilament was performed. Briefly, a 96 well plate was coated overnight at 4° C. with capture antibody (1:5000 SMI-35 anti-neurofilament H. Covance Inc. Cambridge Bioscience, Cambridge, UK) in coating buffer (0.15M Na2CO3, 0.35M NaHCO3, Sigma, UK, pH 9.6. Following one wash in wash buffer (150 mM NaCl, 10 mM Tris-HCl, 0.1% Tween 20, Sigma, UK pH 7.5), non-specific binding was blocked by incubation with 5% bovine serum albumin (Sigma, UK) in wash buffer for 1 hour at room temperature. Following a wash step, samples and standards (Porcine neurofilament heavy chain, Chemicon International, UK) were diluted in wash buffer with 1% bovine serum albumin and incubated on the plate for 1 hour at room temperature. […]

## CC[C@@H]1NC(=O)[C@H]([C@H](O)[C@H](C)C/C=C/CCC[n+]2cccc3ccccc32)N(C)C(=O)[C@H](C(C)C)N(C)C(=O)[C@H](CC(C)C)N(C)C(=O)[C@H](CC(C)C)N(C)C(=O)[C@@H](C)NC(=O)[C@H](C)NC(=O)[C@H](CC(C)C)N(C)C(=O)[C@H](C(C)C)NC(=O)[C@H](CC(C)C)N(C)C(=O)CN(C)C1=O [Compound 1, [Gly-(1S,2R,E)-8-quinolinium-1-hydroxy-2-methyloct-4-ene]^1 CsA]
[1]; TMRM
  mitochondrial membrane potential: Neither mitochondrial membrane potential (FIG. 4A,B), oxygen consumption (FIG. 4C, D) and ATP production (FIG. 4E, F) were affected
[1]; luciferase assay
  ATP levels / ATP production: Neither mitochondrial membrane potential (FIG. 4A,B), oxygen consumption (FIG. 4C, D) and ATP production (FIG. 4E, F) were affected
[2]; 1 mg/kg i.p. daily from day 33
  mean daily clinical score after induction of relapse: inhibits the accumulation of neurological deficit; also recorded: has neuroprotective properties
[2]; 1 mg/kg i.p., vs vehicle
  loss of axons within the spinal cord: lost significantly (P<0.01) less nerves (FIG. 7B) and axons
  loss of motor co-ordination: significantly (P<0.001) less loss of motor co-ordination
  loss of nerves within the spinal cord (neurofilament ELISA): lost significantly (P<0.01) less nerves
[2]; day 27, first remission, before treatment
  rotarod activity (time on accelerating rotarod): 168.8 ± 21.8 s
[2]; second remission after relapse (day 45), 1 mg/kg i.p.
  rotarod activity (time on accelerating rotarod): 135.0 ± 42.9 s
